# From patent publication US20250163002A1, “FUSED QUINONOXIME IMIDAZOLE, ONIUM DERIVATIVES THEREOF, PREPARATION AND USE THEREOF” (SHANGHAI JIAO TONG UNIVERSITY, priority 2022, published 2025)
# Tests used:
# Assay type in all cases: cell-based
# A549 = assay: In vitro inhibition test for cancer cell proliferation (MTT), A549; settings: unit inferred
# MCF-7 = assay: In vitro inhibition test for cancer cell proliferation (MTT), MCF-7; settings: unit inferred
# HeLa = assay: In vitro inhibition test for cancer cell proliferation (MTT), HeLa; settings: 24 h or 48 h after addition, unit inferred
# L929 = assay: In vitro cell proliferation inhibition test (MTT), L929; settings: unit inferred
SMILES,IC50 (A549; 24 h or 48 h after addition) [µM],IC50 (MCF-7; 24 h or 48 h after addition) [µM],IC50 (HeLa) [µM],IC50 (L929; 24 h or 48 h after addition) [µM],"IC50 (A549; Homo sapiens, A549, 24 h or 48 h after addition) [µM]","IC50 (MCF-7; Homo sapiens, MCF7, 24 h or 48 h after addition) [µM]","IC50 (HeLa; Homo sapiens, HeLa) [µM]","IC50 (L929; Mus musculus, L929, 24 h or 48 h after addition) [µM]"
"COCCn1c[n+](C)c2c1C(=O)c1ccccc1/C2=N\O [Compound 100, (E)-4-(hydroxylimino)-1-(2-methoxyethyl)-3-methyl-9-oxo-4,9-dihydro-1H-naphthol[2,3-d]imidazole-3-iodide]",0.62,0.87,2.18,6.64,,,,
"COc1ccc(Cn2c[n+](C)c3c2C(=O)c2ccccc2/C3=N\O)cc1 [Compound 115, (E)-4-(hydroxylimino)-1-(4-methoxybenzyl)-3-methyl-9-oxo-4,9-dihydro-1H-naphthol[2,3-d]imidazole-3-iodide]",0.13,1.64,2.5,17.6,,,,
"C[n+]1cn(Cc2cccc(F)c2)c2c1/C(=N/O)c1ccccc1C2=O [Compound 113, (E)-1-(3-fluorobenzyl)-4-(hydroxylimino)-3-methyl-9-oxo-4,9-dihydro-1H-naphthol[2,3-d]imidazole-3-iodide]",0.57,10,7.1,73.4,,,,
"C[n+]1cn(Cc2ccccc2)c2c1/C(=N/O)c1ccccc1C2=O [Compound 102, (E)-1-benzyl-4-(hydroxylimino)-3-methyl-9-oxo-4,9-dihydro-1H-naphthol[2,3-d]imidazole-3-iodide]",0.63,0.89,1.05,37.4,,,,
"CCCCn1c[n+](CC)c2c1C(=O)c1ccccc1C2=NOC [Compound 122, (E) and (Z)-1-butyl-3-ethyl-4-(methoxylimino)-9-oxo-4,9-dihydro-1H-naphthol[2,3-d]imidazole-3-iodide]",1.8,33,52,> 100,,,,
"CCC(C)Cn1c[n+](C)c2c1C(=O)c1ccccc1/C2=N\O (stereo not drawn) [Compound 97, (E)-4-(hydroxylimino)-3-methyl-1-(2-methylbutyl)-9-oxo-4,9-dihydro-1H-naphthol[2,3-d]imidazole-3-iodide]",1.37,1.05,1.97,74,,,,
"COCCO/N=C1\c2ccccc2C(=O)c2c1[n+](C)cn2C [Compound 144, (E)-4-((2-methoxyethoxy)imino)-1,3-dimethyl-9-oxo-4,9-dihydro-1H-naphthol[2,3-d]imidazole-3-iodide]",0.06,33,23.3,46.6,,,,
"C[n+]1cn(-c2ccc(F)c(Cl)c2)c2c1/C(=N/O)c1ccccc1C2=O [Compound 116, (E)-1-(3-chloro-4-fluorophenyl)-4-(hydroxylimino)-3-methyl-9-oxo-4,9-dihydro-1H-naphthol[2,3-d]imidazole-3-iodide]",2.3,> 100,> 100,> 100,,,,
"Cn1c[n+](C)c2c1C(=O)c1ccccc1C2=NOCc1ccc(Cl)cc1 [Compound 134, (E) and (Z)-4-(((4-chlorobenzyl)oxy)imino)-1,3-dimethyl-9-oxo-4,9-dihydro-1H-naphthol[2,3-d]imidazole-3-iodide]",0.07,25.6,17.5,4.9,,,,
"Cn1c[n+](C)c2c1C(=O)c1ccccc1/C2=N\OCC1OCCO1 [Compound 143, (E)-4-(((1,3-dioxoheterocycle-2-yl)methoxy)imino)-1,3-dimethyl-9-oxo-4,9-dihydro-1H-naphthol[2,3-d]imidazole-3-iodide]",0.03,34.9,25.8,34.8,,,,
"C[n+]1cn(Cc2ccc(F)cc2)c2c1/C(=N/O)c1ccccc1C2=O [Compound 108, (E)-1-(4-fluorobenzyl)-4-(hydroxylimino)-3-methyl-9-oxo-4,9-dihydro-1H-naphthol[2,3-d]imidazole-3-iodide]",0.5,1.63,2.38,> 100,,,,
"Cn1c[n+](C)c2c1C(=O)c1ccccc1/C2=N\OCCOCc1ccccc1 [Compound 145, (E)-4-((2-(benzyloxy)ethoxy)imino)-1,3-dimethyl-9-oxo-4,9-dihydro-1H-naphthol[2,3-d]imidazole-3-iodide]",,,,,0.04,34.8,34.2,45.1
"C=CCON=C1c2cc3ccccc3cc2C(=O)c2c1[n+](C)cn2C [Compound 150, (E) and (Z)-4-((allyloxy)imino)-1,3-dimethyl-11-oxo-4,11-dihydro-1H-anthracene[2,3-d]imidazole-3-iodide]",0.46,45.9,34.4,97.8,,,,
"CCCCn1c[n+](C)c2c1C(=O)c1ccccc1C2=NOCc1ccccc1 [Compound 121, (E) and (Z)-4-((benzyloxy)imino)-1-butyl-3-methyl-9-oxo-4,9-dihydro-1H-naphthol[2,3-d]imidazole-3-iodide]",0.09,6.8,28,61,,,,
"Cn1c[n+](C)c2c1C(=O)c1ccccc1C2=NOCc1ccc(C(F)(F)F)cc1 [Compound 135, (E) and (Z)-1,3-dimethyl-9-oxo-4-(((4-(trifluoromethyl)benzyl)oxy)imino)-4,9-dihydro-1H-naphthol[2,3-d]imidazole-3-iodide]",0.16,34.9,45.4,4.03,,,,
"C[n+]1cn(Cc2ccccc2F)c2c1/C(=N/O)c1ccccc1C2=O [Compound 112, (E)-1-(2-fluorobenzyl)-4-(hydroxylimino)-3-methyl-9-oxo-4,9-dihydro-1H-naphthol[2,3-d]imidazole-3-iodide]",0.57,3.7,7.7,27.3,,,,
"C[n+]1cn(C(C)(C)C)c2c1/C(=N/O)c1ccccc1C2=O [Compound 98, (E)-1-(tert-butyl)-4-(hydroxylimino)-3-methyl-9-oxo-4,9-dihydro-1H-naphthol[2,3-d]imidazole-3-iodide]",0.59,1.81,2.18,38.9,,,,
"CC(C)CON=C1c2ccccc2C(=O)c2c1[n+](C)cn2C [Compound 129, (E) and (Z)-4-(isobutoxyimino)-1,3-dimethyl-9-oxo-4,9-dihydro-1H-naphthol[2,3-d]imidazole-3-iodide]",0.07,12.1,8.7,26.4,,,,
"CC[n+]1cn(C)c2c1C(=NOC)c1ccccc1C2=O [Compound 126, (E) and (Z)-3-ethyl-4-(methoxylimino)-1-methyl-9-oxo-4,9-dihydro-1H-naphthol[2,3-d]imidazole-3-iodide]",0.59,12.2,39,85.2,,,,
"Cn1c[n+](C)c2c1C(=O)c1ccccc1C2=NOCc1ccccc1 [Compound 138, (E) and (Z)-4-((benzyloxy)imino)-1,3-dimethyl-9-oxo-4,9-dihydro-1H-naphthol[2,3-d]imidazole-3-iodide]",0.004,5.9,4.2,25.9,,,,
"CC(C)=CCn1c[n+](C)c2c1C(=O)c1ccccc1/C2=N\O [Compound 101, (E)-4-(hydroxylimino)-3-methyl-1-(3-methyl-2-ene-1-yl)-9-oxo-4,9-dihydro-1H-naphthol[2,3-d]imidazole-3-iodide]",0.64,0.87,1.8,13.1,,,,
